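GI50: concentration for 50% inhibition of growth. TGI marks complete inhibition of growth.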
What was measured:
Experiment in all cases: NCI anticancer screen, dose series, 384-well format
HCC-2998 colon = tested on: HCC-2998 colon
HOP-62 NSCLC = tested on: HOP-62 NSCLC
SF-268 CNS = tested on: SF-268 CNS
HL-60(TB) leukemia = tested on: HL-60(TB) leukemia
HT29 colon = tested on: HT29 colon
COLO 205 colon = tested on: COLO 205 colon
HCT-15 colon = tested on: HCT-15 colon
SK-MEL-5 melanoma = tested on: SK-MEL-5 melanoma
MCF7 breast = tested on: MCF7 breast
SK-OV-3 ovarian = tested on: SK-OV-3 ovarian
OVCAR-3 ovarian = tested on: OVCAR-3 ovarian
MALME-3M melanoma = tested on: MALME-3M melanoma
CAKI-1 renal = tested on: CAKI-1 renal
U251 glioblastoma = tested on: U251 glioblastoma
EKVX NSCLC = tested on: EKVX NSCLC
DU-145 prostate = tested on: DU-145 prostate
IGROV1 ovarian = tested on: IGROV1 ovarian
RPMI-8226 leukemia = tested on: RPMI-8226 leukemia
NCI-H460 NSCLC = tested on: NCI-H460 NSCLC
NCI/ADR-RES ovarian = tested on: NCI/ADR-RES ovarian
SN12C renal = tested on: SN12C renal
HS 578T breast = tested on: HS 578T breast
NCI-H23 lung = tested on: NCI-H23 lung
NCI-H322M lung = tested on: NCI-H322M lung
SK-MEL-28 melanoma = tested on: SK-MEL-28 melanoma
MDA-MB-231 breast = tested on: MDA-MB-231 breast
SF-539 CNS = tested on: SF-539 CNS
TK-10 renal = tested on: TK-10 renal
MDA-MB-435 melanoma = tested on: MDA-MB-435 melanoma
HCT-116 colon = tested on: HCT-116 colon
OVCAR-8 ovarian = tested on: OVCAR-8 ovarian
SF-295 CNS = tested on: SF-295 CNS
SNB-19 CNS = tested on: SNB-19 CNS
MDA-MB-468 breast = tested on: MDA-MB-468 breast
OVCAR-4 ovarian = tested on: OVCAR-4 ovarian
MOLT-4 leukemia = tested on: MOLT-4 leukemia
ACHN renal = tested on: ACHN renal
A498 renal = tested on: A498 renal
T-47D breast = tested on: T-47D breast
UACC-257 melanoma = tested on: UACC-257 melanoma
RXF 393 renal = tested on: RXF 393 renal
UACC-62 melanoma = tested on: UACC-62 melanoma
A549 NSCLC = tested on: A549 NSCLC
SNB-75 CNS = tested on: SNB-75 CNS
LOX IMVI melanoma = tested on: LOX IMVI melanoma
NCI-H522 lung = tested on: NCI-H522 lung
BT-549 breast = tested on: BT-549 breast
NCI-H226 lung = tested on: NCI-H226 lung
OVCAR-5 ovarian = tested on: OVCAR-5 ovarian
HOP-92 NSCLC = tested on: HOP-92 NSCLC
SR leukemia = tested on: SR leukemia
M14 melanoma = tested on: M14 melanoma
PC-3 prostate = tested on: PC-3 prostate
KM12 colon = tested on: KM12 colon

NC1(C(=O)N[C@@H](CCO)c2ccc(Cl)cc2)CCN(c2ncnc3[nH]ccc23)CC1
GI50 (HCC-2998 colon): 2.61 µM
TGI (HCC-2998 colon): > 100 µM
GI50 (HOP-62 NSCLC): 21.1 µM
TGI (HOP-62 NSCLC): > 100 µM
GI50 (SF-268 CNS): 23.8 µM
TGI (SF-268 CNS): > 100 µM
GI50 (HL-60(TB) leukemia): 12.7 µM
TGI (HL-60(TB) leukemia): 25.9 µM
GI50 (HT29 colon): 4.22 µM
TGI (HT29 colon): > 100 µM
GI50 (COLO 205 colon): 5.9 µM
TGI (COLO 205 colon): 73.6 µM
GI50 (HCT-15 colon): 14.7 µM
TGI (HCT-15 colon): > 100 µM
GI50 (SK-MEL-5 melanoma): 10 µM
TGI (SK-MEL-5 melanoma): 29.6 µM
GI50 (MCF7 breast): 0.437 µM
TGI (MCF7 breast): > 100 µM
GI50 (SK-OV-3 ovarian): 1.02 µM
TGI (SK-OV-3 ovarian): > 100 µM
GI50 (OVCAR-3 ovarian): 23.3 µM
TGI (OVCAR-3 ovarian): > 100 µM
GI50 (MALME-3M melanoma): 2.43 µM
TGI (MALME-3M melanoma): 15.3 µM
GI50 (CAKI-1 renal): 10.9 µM
TGI (CAKI-1 renal): > 100 µM
GI50 (U251 glioblastoma): 5.38 µM
TGI (U251 glioblastoma): > 100 µM
GI50 (EKVX NSCLC): 5.28 µM
TGI (EKVX NSCLC): > 100 µM
GI50 (DU-145 prostate): 22.6 µM
TGI (DU-145 prostate): > 100 µM
GI50 (IGROV1 ovarian): 0.121 µM
TGI (IGROV1 ovarian): 2.09 µM
GI50 (RPMI-8226 leukemia): 21.5 µM
TGI (RPMI-8226 leukemia): 84 µM
GI50 (NCI-H460 NSCLC): 0.631 µM
TGI (NCI-H460 NSCLC): 25.2 µM
GI50 (NCI/ADR-RES ovarian): > 100 µM
TGI (NCI/ADR-RES ovarian): > 100 µM
GI50 (SN12C renal): 0.815 µM
TGI (SN12C renal): 25.5 µM
GI50 (HS 578T breast): 0.6 µM
TGI (HS 578T breast): 47 µM
GI50 (NCI-H23 lung): 15 µM
TGI (NCI-H23 lung): 65.8 µM
GI50 (NCI-H322M lung): 16.2 µM
TGI (NCI-H322M lung): > 100 µM
GI50 (SK-MEL-28 melanoma): 4.49 µM
TGI (SK-MEL-28 melanoma): > 100 µM
GI50 (MDA-MB-231 breast): 84.9 µM
TGI (MDA-MB-231 breast): > 100 µM
GI50 (SF-539 CNS): 0.41 µM
TGI (SF-539 CNS): 57.7 µM
GI50 (TK-10 renal): 3.3 µM
TGI (TK-10 renal): > 100 µM
GI50 (MDA-MB-435 melanoma): 6.05 µM
TGI (MDA-MB-435 melanoma): 87.8 µM
GI50 (HCT-116 colon): 10.6 µM
TGI (HCT-116 colon): > 100 µM
GI50 (OVCAR-8 ovarian): 26.4 µM
TGI (OVCAR-8 ovarian): > 100 µM
GI50 (SF-295 CNS): 1.14 µM
TGI (SF-295 CNS): 17 µM
GI50 (SNB-19 CNS): 18.8 µM
TGI (SNB-19 CNS): > 100 µM
GI50 (MDA-MB-468 breast): 0.279 µM
TGI (MDA-MB-468 breast): 14.7 µM
GI50 (OVCAR-4 ovarian): 88.3 µM
TGI (OVCAR-4 ovarian): > 100 µM
GI50 (MOLT-4 leukemia): 0.453 µM
TGI (MOLT-4 leukemia): 1.88 µM
GI50 (ACHN renal): 13.1 µM
TGI (ACHN renal): > 100 µM
GI50 (A498 renal): 0.394 µM
TGI (A498 renal): 26.7 µM
GI50 (T-47D breast): 0.423 µM
TGI (T-47D breast): > 100 µM
GI50 (UACC-257 melanoma): 4.55 µM
TGI (UACC-257 melanoma): 25.7 µM
GI50 (RXF 393 renal): 1.2 µM
TGI (RXF 393 renal): 44 µM
GI50 (UACC-62 melanoma): 2.2 µM
TGI (UACC-62 melanoma): 18.6 µM
GI50 (A549 NSCLC): 19.7 µM
TGI (A549 NSCLC): > 100 µM
GI50 (SNB-75 CNS): 0.366 µM
TGI (SNB-75 CNS): 35.8 µM
GI50 (LOX IMVI melanoma): 22.4 µM
TGI (LOX IMVI melanoma): > 100 µM
GI50 (NCI-H522 lung): 9.74 µM
TGI (NCI-H522 lung): 24.2 µM
GI50 (BT-549 breast): 0.863 µM
TGI (BT-549 breast): 18.9 µM
GI50 (NCI-H226 lung): 13 µM
TGI (NCI-H226 lung): 78.6 µM
GI50 (OVCAR-5 ovarian): 21.9 µM
TGI (OVCAR-5 ovarian): 96.1 µM
GI50 (HOP-92 NSCLC): > 100 µM
TGI (HOP-92 NSCLC): > 100 µM
GI50 (SR leukemia): 1.07 µM
TGI (SR leukemia): 4.49 µM
GI50 (M14 melanoma): 6.69 µM
TGI (M14 melanoma): 27.6 µM
GI50 (PC-3 prostate): 0.629 µM
TGI (PC-3 prostate): > 100 µM
GI50 (KM12 colon): 1.08 µM
TGI (KM12 colon): > 100 µM

— PubChem BioAssay (NCI)
